From US20150045330A1, “PROPHYLACTIC AND THERAPEUTIC DRUG FOR AMYOTROPHIC LATERAL SCLEROSIS AND METHOD OF SCREENING THEREFOR” (priority 2012, published 2015)

Experiments:
[1] = test system: insoluble TDP-43; experiment: Amount of TDP-43 protein insoluble in 1% Triton X-100 solution in ALS-MNs; format: cell-based, human; conditions: AA addition, FIGS. 12G and H
[2] = test system: ALS-iPS cell-derived neurons; experiment: Gene expression category analysis (gene ontology) in ALS-iPS cell-derived neurons; format: cell-based, human; conditions: AA addition vs non-addition; FIG. 13A
[3] = test system: TNFα/NF-κB, andorogen receptor and α6β4 integrin pathways; experiment: Signal transduction pathway analysis in ALS-iPS cell-derived neurons; format: cell-based, human; conditions: AA addition vs non-addition; FIG. 13B
[4] = test system: ALS-MNs; experiment: Length of neurite in HB9::GFP-positive ALS-MNs (IN Cell Analyzer 2000); format: cell-based, human; conditions: AA addition vs control group; FIGS. 12E and F
[5] = test system: NEFL; experiment: NEFL expression level in ALS-MNs (quantitative PCR); format: cell-based, human; conditions: AA addition
[6] = test system: ALS-MNs; experiment: MDA (malondialdehyde)-modified protein in total protein by Western blotting; format: cell-based, human; conditions: AA addition vs non-addition, particularly proteins of about 30 kDa to 50 kDa, FIG. 14
From the text: Sequentially, to confirm an antioxidant action of AA, the amount of the protein modified with MDA (malondialdehyde) in the total protein was confirmed by Western blotting using 5 to 15% gradient gel in the AA addition group and the AA non-addition group of control MNs or ALS-MNs. […] This tendency was particularly strong in proteins having a size of about 30 kDa to 50 kDa.

[7] = test system: NEFM; experiment: NEFM expression level in ALS-MNs (quantitative PCR); format: cell-based, human; conditions: AA addition
[8] = test system: ALS-MNs; experiment: Arsenite-induced cell death of iPS cell-derived ALS motor neurons (HB9::GFP-positive cell number); format: cell-based, human; conditions: added 16 or 48 hr before arsenite addition, FIG. 12D
[9] = test system: ALS-MNs

For `CCCCCCCCCCCCCCCc1cccc(O)c1C(=O)O` [anacardic acid], the “amount of insoluble TDP-43” value [1] was “decreased”, the “factors relating to intermediate filament cytoskeleton, intermediate filament and keratin filament” value [2] was “increased” and the “factors relating to translation, RNP complex, RNA binding, RNA metabolism pathway, RNA processing, RNA splicing and spliceosomal complex” value [2] was “decreased”. For the same compound, the “TNFα/NF-κB, andorogen receptor and α6β4 integrin pathways” value [3] was “decreased”, the “length of neurite in ALS-MNs” value [4] was “significantly increased” and the “expression level of NEFL” value [5] was “increased”. The “amount of MDA-modified protein in the total protein” value [6] was “decreased the amount” and the “expression level of NEFM” value [7] was “increased”.
For `CO[C@]1(C)C[C@@]2(CO2)[C@H](O)[C@@H](/C=C/C(C)=C/C[C@@H]2O[C@H](C)[C@H](NC(=O)/C=C\[C@H](C)OC(C)=O)C[C@@H]2C)O1` [splicesostatin A], the “suppression of arsenite-induced cell death of ALS-MNs” value ([8]; 100 ng/ml) was “did not show such action”.
For `CC(/C=C/C(=O)NO)=C\[C@@H](C)C(=O)c1ccc(N(C)C)cc1` [trichostatin A], the “suppression of arsenite-induced cell death of ALS-MNs” value ([8]; 3 μM) was “did not show such action”.
For arsenite, the RNA granule formation [9] was “promotion”, the “insoluble TDP-43” value [9] was “increase” and the “number of cells subjected to EthD-1-positive injury” value [9] was “significantly high”.
